The source of these data is paper PMC8855934 (Journal of medicinal chemistry, 2021).

The structures appear in SMILES notation. Changes are numbered by the printed parent chain. A value given as a limit tells only on which side of the number the result lay.

A short description of one data set: Oral exposures in mice. It is filed as in vivo. As to conditions: oral gavage, non-tumor-bearing male mice (Table S1).
The next data set is described as follows: Pharmacokinetics in mice. The format is in vivo. The note with it: male, mouse, iv, 1 mg/kg.
For another data set, the target named is T1, AR T878A mutant protein (Homo sapiens, UniProt P10275, T878A).
T1 sequence (P10275 1-920 T878A): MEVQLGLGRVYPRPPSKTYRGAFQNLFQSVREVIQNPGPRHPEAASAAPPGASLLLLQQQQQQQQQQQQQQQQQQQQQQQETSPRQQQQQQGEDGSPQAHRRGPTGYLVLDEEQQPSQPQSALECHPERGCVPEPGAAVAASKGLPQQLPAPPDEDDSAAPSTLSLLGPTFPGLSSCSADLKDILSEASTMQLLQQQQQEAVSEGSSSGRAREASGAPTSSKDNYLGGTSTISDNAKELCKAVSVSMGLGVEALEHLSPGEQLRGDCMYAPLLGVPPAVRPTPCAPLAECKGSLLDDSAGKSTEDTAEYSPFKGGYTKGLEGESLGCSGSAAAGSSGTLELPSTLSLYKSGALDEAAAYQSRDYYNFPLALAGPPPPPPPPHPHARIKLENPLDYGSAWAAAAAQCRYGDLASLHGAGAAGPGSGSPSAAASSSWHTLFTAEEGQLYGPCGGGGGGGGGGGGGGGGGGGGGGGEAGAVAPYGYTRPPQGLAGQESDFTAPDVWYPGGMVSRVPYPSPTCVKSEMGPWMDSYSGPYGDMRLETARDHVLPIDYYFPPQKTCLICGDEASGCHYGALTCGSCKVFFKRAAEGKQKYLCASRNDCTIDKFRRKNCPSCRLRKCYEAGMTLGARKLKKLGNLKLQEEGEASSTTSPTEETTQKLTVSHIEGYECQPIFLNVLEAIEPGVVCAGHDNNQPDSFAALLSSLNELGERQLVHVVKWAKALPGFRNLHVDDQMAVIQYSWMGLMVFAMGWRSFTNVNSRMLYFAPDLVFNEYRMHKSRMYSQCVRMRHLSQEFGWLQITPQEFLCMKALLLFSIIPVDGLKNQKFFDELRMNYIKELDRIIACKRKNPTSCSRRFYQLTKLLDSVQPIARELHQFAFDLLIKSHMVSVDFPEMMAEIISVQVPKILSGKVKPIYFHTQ
The note with it: LNCaP, 1 h.

Data set [1] has as its target T2, AR protein (Homo sapiens, UniProt P10275).
T2 sequence (P10275 1-920): T1 sequence (P10275 1-920 T878A) with A878T
Nature of the data set: AR degradation in VCaP cell line. The format is cell-based. As to conditions: for reduction of AR protein level (degradation kinetics) / Dmax: VCaP; for reduction of AR protein level (degradation kinetics): 1 h; for Dmax: read-out: Dmax, AR degradation in VCaP cell line, VCaP cell line, 24 h treatment, Western blotting.

Data set [2] has as its target T2, AR protein. The note with it: single oral administration 20 mg/kg, 6 and 24 h time-points, Western blotting.

Take `N#Cc1ccc(O[C@H]2CC[C@H](NC(=O)c3ccc(NCCCNc4ccc5c(c4)C(=O)N(C4CCC(=O)NC4=O)C5=O)cc3)CC2)cc1Cl` (stereo partly drawn) [Compound 11, N-((1R,4R)-4-(3-Chloro-4-cyanophenoxy)cyclohexyl)-4-((3-((2-(2,6-dioxopiperidin-3-yl)-1,3-dioxoisoindolin-5-yl)amino)propyl)-amino)benzamide]: in “Oral exposures in mice”, the “oral exposures in mice” value is given as “very low”.

For `N#Cc1ccc(O[C@H]2CC[C@H](NC(=O)c3ccc(N4CCC(N5CCN(c6ccc7c(c6)C(=O)N(C6CCC(=O)NC6=O)C7=O)CC5)CC4)cc3)CC2)cc1Cl` (stereo partly drawn) [Compound 26, N-(1R,4R)-4-((3-Chloro-4-cyanophenoxy)cyclohexyl)-4-(4-(4-(2-(2,6-dioxopiperidin-3-yl)-1,3-dioxoisoindolin-5-yl)piperazin-1-yl)-piperidin-1-yl)benzamide], the clearance in the data set “Pharmacokinetics in mice” (plasma) is 6.67 mL/min/kg. In addition, the “reduction of AR protein level (degradation kinetics)” value (“reduction … (degradation kinetics)” for short) at AR T878A mutant protein and on AR protein [1] was “effectively reduce” in each case.

For the compound `N#Cc1ccc(O[C@H]2CC[C@H](NC(=O)c3ccc(N4CCN(CC5CN(c6ccc7c(c6)C(=O)N(C6CCC(=O)NC6=O)C7=O)C5)CC4)cc3)CC2)cc1Cl` (stereo partly drawn) [Compound 27, N-(1R,4R)-4-((3-Chloro-4-cyanophenoxy)cyclohexyl)-4-(4-((l-(2-(2,6-dioxopiperidin-3-yl)-1,3-dioxoisoindolin-5-yl)azetidin-3-yl)-methyl)piperazin-1-yl)benzamide], the “reduction … (degradation kinetics)” value on AR T878A mutant protein and on AR protein [1] was “effectively reduce” throughout.

Consider `N#Cc1ccc(O[C@H]2CCC[C@H](NC(=O)c3ccc(N4CCC(N5CCN(c6ccc7c(c6)C(=O)N(C6CCC(=O)NC6=O)C7=O)CC5)CC4)cc3)CCC2)cc1Cl` (stereo partly drawn) [Compound 31, N-(1R,5R)-5-((3-Chloro-4-cyanophenoxy)cyclooctyl)-4-(4-(4-(2-(2,6-dioxopiperidin-3-yl)-1,3-dioxoisoindolin-5-yl)piperazin-1-yl)-piperidin-1-yl)benzamide], for which the “Dmax, AR degradation in VCaP cell line” value on AR protein [1] (VCaP cell line, 24 h treatment, Western blotting) stood at 54%.

`N#Cc1ccc(OC2CCN(C(=O)c3ccc(N4CCC(N5CCN(c6ccc7c(c6)C(=O)N(C6CCC(=O)NC6=O)C7=O)CC5)CC4)cc3)CC2)cc1Cl` (centres unmarked) [Compound 32, 2-Chloro-4-((1-(4-(4-(4-(2-(2,6-dioxopiperidin-3-yl)-1,3-dioxoisoindolin-5-yl)piperazin-1-yl)piperidin-1-yl)benzoyl)piperidin-4-yl)-oxy)benzonitrile]: the “effect in reducing AR protein (in words)” value at AR protein [1] (VCaP cell line) was “little or no effect”.

On to `N#Cc1ccc(O[C@@H]2CCCN(C(=O)c3ccc(N4CCC(N5CCN(c6ccc7c(c6)C(=O)N(C6CCC(=O)NC6=O)C7=O)CC5)CC4)cc3)CC2)cc1Cl` (some centres unmarked) [Compound 33], for which, on AR protein [1] (VCaP cell line), the “effect in reducing AR protein (in words)” value is “little or no effect”.

For the compound `CN(c1ccc(C#N)c(Cl)c1)[C@H]1CC[C@H](NC(=O)c2ccc(N3CCC(N4CCN(c5ccc6c(c5)C(=O)N(C5CCC(=O)NC5=O)C6=O)CC4)CC3)cc2)CC1` (some centres unmarked) [Compound 35], the clearance in “Pharmacokinetics in mice” (plasma) is 5 mL/min/kg.

On to `CN(c1ccc(C#N)c(Cl)c1)[C@H]1CC[C@H](NC(=O)c2ccc(N3CCC(CN4CCN(c5ccc6c(c5)C(=O)N(C5CCC(=O)NC5=O)C6=O)CC4)CC3)cc2)CC1` (stereo partly drawn) [Compound 40, N-(1R,4R)-4-(((3-Chloro-4-cyanophenyl)(methyl)amino)-cyclohexyl)-4-(4-((4-(2-(2,6-dioxopiperidin-3-yl)-1,3-dioxoisoindolin-5-yl)piperazin-1-yl)methyl)piperidin-1-yl)benzamide], for which the “reduction … (degradation kinetics)” value on AR T878A mutant protein and at AR protein [1] was “effectively reduce” each time.

`CN(c1ccc(C#N)c(Cl)c1)[C@H]1CC[C@H](NC(=O)c2ccc(N3CCN(C4CCN(c5ccc6c(c5)C(=O)N(C5CCC(=O)NC5=O)C6=O)CC4)CC3)cc2)CC1` (stereo partly drawn) [Compound 41, N-(1R,4R)-4-(((3-Chloro-4-cyanophenyl)(methyl)amino)-cyclohexyl)-4-(4-(1-(2-(2,6-dioxopiperidin-3-yl)-1,3-dioxoisoindolin-5-yl)piperidin-4-yl)piperazin-1-yl)benzamide]: the “reduction of AR protein level in VCaP tumor tissue” value at AR protein [2] is “effective”. In addition, the “reduction … (degradation kinetics)” value at AR T878A mutant protein and at AR protein [1] was “effectively reduce” throughout.

On to `CN(c1ccc(C#N)c(Cl)c1)[C@H]1CC[C@H](NC(=O)c2ccc(N3CC(CN4CCN(c5ccc6c(c5)C(=O)N(C5CCC(=O)NC5=O)C6=O)CC4)C3)cc2)CC1` (stereo partly drawn) [Compound 44, N-(1R,4R)-4-(((3-Chloro-4-cyanophenyl)(methyl)amino)-cyclohexyl)-4-(3-((4-(2-(2,6-dioxopiperidin-3-yl)-1,3-dioxoisoindolin-5-yl)piperazin-1-yl)methyl)azetidin-1-yl)benzamide], for which the “reduction … (degradation kinetics)” value at AR T878A mutant protein and at AR protein [1] was “effectively reduce” throughout.

As to `CN(c1ccc(C#N)c(Cl)c1)[C@H]1CC[C@H](NC(=O)c2ccc(N3CC(N4CCN(c5ccc6c(c5)C(=O)N(C5CCC(=O)NC5=O)C6=O)CC4)C3)cc2)CC1` (stereo partly drawn) [Compound 45, N-(1R,4R)-4-(((3-Chloro-4-cyanophenyl)(methyl)amino)-cyclohexyl)-4-(3-(4-(2-(2,6-dioxopiperidin-3-yl)-1,3-dioxoisoindolin-5-yl)piperazin-1-yl)azetidin-1-yl)benzamide], on AR protein [2], the “reduction of AR protein level in VCaP tumor tissue” value was “effective”. In the data set “Pharmacokinetics in mice” (in vivo), the Vd was in the range of 1.8 to 2.1 L/kg, the clearance is 3.33 to 5 mL/min/kg and the half-life is 5.5 to 7.5 h. Besides, the clearance in “Pharmacokinetics in mice” (plasma) is 3.33 mL/min/kg. The “reduction … (degradation kinetics)” value at AR T878A mutant protein was “effectively reduce”. The “reduction … (degradation kinetics)” value on AR protein [1] is recorded as “effectively reduce”.

Consider `CC(O)(CS(=O)(=O)c1ccc(N2CCN(C3CCN(c4ccc5c(c4)C(=O)N(C4CCC(=O)NC4=O)C5=O)CC3)CC2)cc1)C(=O)Nc1ccc(C#N)c(C(F)(F)F)c1` (centres unmarked) [Compound 46, N-(4-Cyano-3-(trifluoromethyl)phenyl)-3-((4-(4-(1-(2-(2,6-dioxopiperidin-3-yl)-1,3-dioxoisoindolin-5-yl)piperidin-4-yl)piperazin-1-yl)phenyl)sulfonyl)-2-hydroxy-2-methylpropanamide], for which the Dmax at AR protein [1] was less than 32%.

`N#Cc1ncc(N2C(=O)C3(CCC3)N(c3ccc(C(=O)N4CCN(C5CCN(c6ccc7c(c6)C(=O)N(C6CCC(=O)NC6=O)C7=O)CC5)CC4)c(F)c3)C2=S)cc1C(F)(F)F` (centres unmarked) [Compound 48, 5-(5-(4-(4-(1-(2-(2,6-Dioxopiperidin-3-yl)-1,3-dioxoisoindolin-5-yl)piperidin-4-yl)piperazine-1-carbonyl)-3-fluorophenyl)-8-oxo-6-thioxo-5,7-diazaspiro[3.4]octan-7-yl)-3-(trifluoromethyl)-picolinonitrile]: the Dmax at AR protein [1] is less than 32%.
